From the kinase profiling compilation of Christmann-Franck et al. (2016)

What follows are molecules tested against MAPK12 (human) (UniProt P53778) (assay: radiometric filter-binding kinase assay, Kinase HotSpot). Conditions: compound 0.5 µM; ATP 10 µM.

Row | Compound | residual activity [%]
1 | O=C(Nc1ccc(Cl)cc1)c1ccccc1NCc1ccncc1 | 97.3
2 | CC(C)n1cnc2c(Nc3cccc(Cl)c3)nc(NCCO)nc21 | 102
3 | COc1cc2nccc(Oc3ccc(NC(=S)NC(=O)c4ccccc4C)cc3)c2cc1OC | 96.8
4 | CCN1/C(=C/C(C)=O)Sc2ccc(OC)cc21 | 99.8

Each molecule was assayed against NEK2 (human) (UniProt P51955) in the same assay as above. Conditions: compound 0.5 µM; ATP 10 µM.
NEK2 (human), sequence (P51955 whole entry, looked up): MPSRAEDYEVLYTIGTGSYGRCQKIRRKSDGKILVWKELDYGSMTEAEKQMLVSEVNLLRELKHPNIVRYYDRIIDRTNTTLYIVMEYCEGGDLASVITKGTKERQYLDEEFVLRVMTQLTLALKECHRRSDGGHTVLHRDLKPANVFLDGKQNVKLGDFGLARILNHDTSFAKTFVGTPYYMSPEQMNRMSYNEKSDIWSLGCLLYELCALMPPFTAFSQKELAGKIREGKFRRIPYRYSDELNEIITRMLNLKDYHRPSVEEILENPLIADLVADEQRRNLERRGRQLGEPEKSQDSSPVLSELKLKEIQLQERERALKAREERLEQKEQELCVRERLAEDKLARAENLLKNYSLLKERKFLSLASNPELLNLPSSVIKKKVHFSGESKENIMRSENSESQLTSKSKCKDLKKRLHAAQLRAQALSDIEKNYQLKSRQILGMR

Row | Compound | residual activity [%]
5 | O=C(Nc1ccc(Cl)cc1)c1ccccc1NCc1ccncc1 | 88.4
6 | CC(C)n1cnc2c(Nc3cccc(Cl)c3)nc(NCCO)nc21 | 97.6
7 | COc1cc2nccc(Oc3ccc(NC(=S)NC(=O)c4ccccc4C)cc3)c2cc1OC | 89
8 | CCN1/C(=C/C(C)=O)Sc2ccc(OC)cc21 | 97.6

What follows are molecules tested against CHEK2 (human) (UniProt O96017) in the same assay as above. Conditions: compound 0.5 µM; ATP 10 µM.

Row | Compound | residual activity [%]
9 | O=C(Nc1ccc(Cl)cc1)c1ccccc1NCc1ccncc1 | 94.5
10 | CC(C)n1cnc2c(Nc3cccc(Cl)c3)nc(NCCO)nc21 | 78.5
11 | COc1cc2nccc(Oc3ccc(NC(=S)NC(=O)c4ccccc4C)cc3)c2cc1OC | 67
12 | CCN1/C(=C/C(C)=O)Sc2ccc(OC)cc21 | 104

These molecules were tested against SIK2 (human) (UniProt Q9H0K1) in the same assay as above. Conditions: compound 0.5 µM; ATP 10 µM.
SIK2 (human), sequence (Q9H0K1 whole entry, looked up): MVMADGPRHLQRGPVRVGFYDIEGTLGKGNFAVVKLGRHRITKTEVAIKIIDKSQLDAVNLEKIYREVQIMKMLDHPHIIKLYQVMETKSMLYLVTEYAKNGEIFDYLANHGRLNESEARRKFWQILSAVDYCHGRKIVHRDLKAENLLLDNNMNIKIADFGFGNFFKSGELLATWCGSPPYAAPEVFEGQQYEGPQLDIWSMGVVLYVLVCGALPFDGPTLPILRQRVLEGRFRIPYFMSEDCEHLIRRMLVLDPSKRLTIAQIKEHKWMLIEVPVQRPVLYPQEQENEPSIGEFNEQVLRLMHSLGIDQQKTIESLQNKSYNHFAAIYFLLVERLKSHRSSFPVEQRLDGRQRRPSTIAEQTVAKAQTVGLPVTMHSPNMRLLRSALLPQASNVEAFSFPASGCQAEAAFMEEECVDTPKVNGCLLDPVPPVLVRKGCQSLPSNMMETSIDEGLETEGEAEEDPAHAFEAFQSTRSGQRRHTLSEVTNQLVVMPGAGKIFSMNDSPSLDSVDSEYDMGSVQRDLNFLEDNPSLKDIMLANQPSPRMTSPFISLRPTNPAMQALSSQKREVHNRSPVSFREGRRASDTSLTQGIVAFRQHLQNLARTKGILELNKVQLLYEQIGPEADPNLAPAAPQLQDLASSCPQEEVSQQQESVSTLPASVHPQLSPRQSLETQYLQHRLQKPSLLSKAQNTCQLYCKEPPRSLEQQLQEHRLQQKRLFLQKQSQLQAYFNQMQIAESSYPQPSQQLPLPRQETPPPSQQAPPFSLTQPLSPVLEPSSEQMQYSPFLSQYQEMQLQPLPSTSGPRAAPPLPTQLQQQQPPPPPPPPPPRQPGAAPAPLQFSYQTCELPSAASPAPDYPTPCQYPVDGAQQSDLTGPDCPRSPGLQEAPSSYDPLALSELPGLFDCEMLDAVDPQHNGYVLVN

Row | Compound | residual activity [%]
13 | O=C(Nc1ccc(Cl)cc1)c1ccccc1NCc1ccncc1 | 94.8
14 | CC(C)n1cnc2c(Nc3cccc(Cl)c3)nc(NCCO)nc21 | 107
15 | COc1cc2nccc(Oc3ccc(NC(=S)NC(=O)c4ccccc4C)cc3)c2cc1OC | 97.8
16 | CCN1/C(=C/C(C)=O)Sc2ccc(OC)cc21 | 116

What follows are molecules tested against IGF1R (human) (UniProt P08069) in the same assay as above. Conditions: compound 0.5 µM; ATP 10 µM.
IGF1R (human), sequence (P08069 whole entry, looked up): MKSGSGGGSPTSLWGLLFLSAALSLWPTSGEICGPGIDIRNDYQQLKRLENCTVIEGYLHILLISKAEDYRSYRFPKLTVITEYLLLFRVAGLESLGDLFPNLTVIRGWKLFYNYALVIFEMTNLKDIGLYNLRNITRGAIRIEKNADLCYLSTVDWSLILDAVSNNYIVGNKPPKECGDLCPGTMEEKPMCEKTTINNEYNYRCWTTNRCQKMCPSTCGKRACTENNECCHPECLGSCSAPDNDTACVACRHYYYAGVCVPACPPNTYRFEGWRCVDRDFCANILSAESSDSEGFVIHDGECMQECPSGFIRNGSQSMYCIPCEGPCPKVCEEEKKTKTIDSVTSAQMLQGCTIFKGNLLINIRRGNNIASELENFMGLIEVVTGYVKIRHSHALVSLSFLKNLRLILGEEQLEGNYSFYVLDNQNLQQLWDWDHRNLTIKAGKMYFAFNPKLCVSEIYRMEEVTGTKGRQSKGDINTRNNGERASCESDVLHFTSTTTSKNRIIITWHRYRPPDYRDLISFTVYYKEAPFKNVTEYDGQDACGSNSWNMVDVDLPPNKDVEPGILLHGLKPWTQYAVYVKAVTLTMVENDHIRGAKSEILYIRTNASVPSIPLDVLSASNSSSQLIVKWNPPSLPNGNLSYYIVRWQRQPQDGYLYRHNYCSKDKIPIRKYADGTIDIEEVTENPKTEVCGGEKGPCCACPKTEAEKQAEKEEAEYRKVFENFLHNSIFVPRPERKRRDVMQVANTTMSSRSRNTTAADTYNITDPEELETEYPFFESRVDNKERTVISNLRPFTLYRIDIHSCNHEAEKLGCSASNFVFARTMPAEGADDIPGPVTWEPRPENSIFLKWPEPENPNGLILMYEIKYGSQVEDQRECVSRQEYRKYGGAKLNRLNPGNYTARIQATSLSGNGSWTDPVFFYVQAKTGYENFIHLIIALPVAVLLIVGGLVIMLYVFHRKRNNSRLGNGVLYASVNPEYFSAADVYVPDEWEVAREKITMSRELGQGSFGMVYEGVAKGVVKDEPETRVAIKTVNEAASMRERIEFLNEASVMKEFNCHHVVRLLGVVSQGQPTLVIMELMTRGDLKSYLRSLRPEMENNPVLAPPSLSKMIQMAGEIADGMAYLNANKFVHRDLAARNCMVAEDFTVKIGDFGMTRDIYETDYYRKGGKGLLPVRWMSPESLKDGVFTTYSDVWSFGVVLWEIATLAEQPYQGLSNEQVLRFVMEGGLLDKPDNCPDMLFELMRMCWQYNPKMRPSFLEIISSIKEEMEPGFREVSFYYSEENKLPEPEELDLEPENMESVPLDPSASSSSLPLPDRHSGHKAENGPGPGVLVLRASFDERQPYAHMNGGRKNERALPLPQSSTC

Row | Compound | residual activity [%]
17 | CC(C)n1cnc2c(Nc3cccc(Cl)c3)nc(NCCO)nc21 | 90
18 | COc1cc2nccc(Oc3ccc(NC(=S)NC(=O)c4ccccc4C)cc3)c2cc1OC | 92.1
19 | CCN1/C(=C/C(C)=O)Sc2ccc(OC)cc21 | 98.3

These molecules were tested against EPHB3 (human) (UniProt P54753) in the same assay as above. Conditions: compound 0.5 µM; ATP 10 µM.

Row | Compound | residual activity [%]
20 | O=C(Nc1ccc(Cl)cc1)c1ccccc1NCc1ccncc1 | 96.9
21 | CC(C)n1cnc2c(Nc3cccc(Cl)c3)nc(NCCO)nc21 | 119
22 | COc1cc2nccc(Oc3ccc(NC(=S)NC(=O)c4ccccc4C)cc3)c2cc1OC | 95.7
23 | CCN1/C(=C/C(C)=O)Sc2ccc(OC)cc21 | 90.3

These molecules were tested against PAK7 (human) (UniProt Q9P286) in the same assay as above. Conditions: compound 0.5 µM; ATP 10 µM.

Row | Compound | residual activity [%]
24 | O=C(Nc1ccc(Cl)cc1)c1ccccc1NCc1ccncc1 | 79.4
25 | CC(C)n1cnc2c(Nc3cccc(Cl)c3)nc(NCCO)nc21 | 80.4
26 | COc1cc2nccc(Oc3ccc(NC(=S)NC(=O)c4ccccc4C)cc3)c2cc1OC | 102
27 | CCN1/C(=C/C(C)=O)Sc2ccc(OC)cc21 | 84.7

These molecules were tested against MET (human) (UniProt P08581) in the same assay as above. Conditions: compound 0.5 µM; ATP 10 µM.
MET (human), sequence (P08581 whole entry, looked up): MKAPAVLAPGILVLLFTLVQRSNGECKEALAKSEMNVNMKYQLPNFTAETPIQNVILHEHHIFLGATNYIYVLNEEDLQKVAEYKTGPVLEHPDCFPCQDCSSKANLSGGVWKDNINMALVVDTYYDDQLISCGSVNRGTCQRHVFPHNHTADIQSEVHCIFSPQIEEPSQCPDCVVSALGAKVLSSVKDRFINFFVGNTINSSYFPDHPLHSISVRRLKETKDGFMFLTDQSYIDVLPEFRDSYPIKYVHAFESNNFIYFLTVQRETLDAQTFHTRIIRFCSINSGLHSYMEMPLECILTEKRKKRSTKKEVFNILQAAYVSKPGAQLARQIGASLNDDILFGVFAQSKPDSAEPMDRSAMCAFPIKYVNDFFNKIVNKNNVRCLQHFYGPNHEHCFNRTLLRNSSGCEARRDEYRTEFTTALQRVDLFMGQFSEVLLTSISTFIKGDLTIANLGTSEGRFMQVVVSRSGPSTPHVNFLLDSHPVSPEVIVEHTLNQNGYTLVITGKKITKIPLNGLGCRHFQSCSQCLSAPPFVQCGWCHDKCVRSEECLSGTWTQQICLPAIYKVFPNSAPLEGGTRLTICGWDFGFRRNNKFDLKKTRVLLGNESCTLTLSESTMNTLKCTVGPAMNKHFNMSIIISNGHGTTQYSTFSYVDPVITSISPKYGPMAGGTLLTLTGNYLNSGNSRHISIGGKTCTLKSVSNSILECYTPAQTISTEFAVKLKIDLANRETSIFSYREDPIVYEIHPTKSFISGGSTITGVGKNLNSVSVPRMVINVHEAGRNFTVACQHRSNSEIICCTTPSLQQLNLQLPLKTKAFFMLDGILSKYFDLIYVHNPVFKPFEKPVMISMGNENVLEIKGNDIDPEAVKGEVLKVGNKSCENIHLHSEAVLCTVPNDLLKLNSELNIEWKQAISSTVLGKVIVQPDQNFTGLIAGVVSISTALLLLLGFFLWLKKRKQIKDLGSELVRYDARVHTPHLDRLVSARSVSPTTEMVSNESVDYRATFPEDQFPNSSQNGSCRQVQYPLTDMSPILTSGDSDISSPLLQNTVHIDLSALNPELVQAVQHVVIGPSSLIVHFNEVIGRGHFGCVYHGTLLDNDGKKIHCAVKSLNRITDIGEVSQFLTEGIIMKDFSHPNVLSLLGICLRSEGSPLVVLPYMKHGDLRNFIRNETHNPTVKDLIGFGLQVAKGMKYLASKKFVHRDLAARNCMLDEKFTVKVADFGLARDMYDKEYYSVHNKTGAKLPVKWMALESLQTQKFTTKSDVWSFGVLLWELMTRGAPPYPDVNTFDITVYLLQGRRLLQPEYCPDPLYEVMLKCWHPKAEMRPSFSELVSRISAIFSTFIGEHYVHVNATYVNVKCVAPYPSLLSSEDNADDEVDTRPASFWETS

Row | Compound | residual activity [%]
28 | O=C(Nc1ccc(Cl)cc1)c1ccccc1NCc1ccncc1 | 92.2
29 | CC(C)n1cnc2c(Nc3cccc(Cl)c3)nc(NCCO)nc21 | 83.9
30 | COc1cc2nccc(Oc3ccc(NC(=S)NC(=O)c4ccccc4C)cc3)c2cc1OC | 60.4
31 | CCN1/C(=C/C(C)=O)Sc2ccc(OC)cc21 | 103

The molecules below were run against DYRK1B (human) (UniProt Q9Y463) in the same assay as above. Conditions: compound 0.5 µM; ATP 10 µM.

Row | Compound | residual activity [%]
32 | O=C(Nc1ccc(Cl)cc1)c1ccccc1NCc1ccncc1 | 106
33 | CC(C)n1cnc2c(Nc3cccc(Cl)c3)nc(NCCO)nc21 | 78.8
34 | COc1cc2nccc(Oc3ccc(NC(=S)NC(=O)c4ccccc4C)cc3)c2cc1OC | 110
35 | CCN1/C(=C/C(C)=O)Sc2ccc(OC)cc21 | 32.9

The molecules below were run against MAP2K2 (human) (UniProt P36507) in the same assay as above. Conditions: compound 0.5 µM; ATP 10 µM.

Row | Compound | residual activity [%]
36 | O=C(Nc1ccc(Cl)cc1)c1ccccc1NCc1ccncc1 | 102
37 | CC(C)n1cnc2c(Nc3cccc(Cl)c3)nc(NCCO)nc21 | 97.6
38 | COc1cc2nccc(Oc3ccc(NC(=S)NC(=O)c4ccccc4C)cc3)c2cc1OC | 79.4
39 | CCN1/C(=C/C(C)=O)Sc2ccc(OC)cc21 | 86.4

These molecules were tested against AKT1 (human) (UniProt P31749) in the same assay as above. Conditions: compound 0.5 µM; ATP 10 µM.

Row | Compound | residual activity [%]
40 | O=C(Nc1ccc(Cl)cc1)c1ccccc1NCc1ccncc1 | 97.6
41 | CC(C)n1cnc2c(Nc3cccc(Cl)c3)nc(NCCO)nc21 | 103
42 | COc1cc2nccc(Oc3ccc(NC(=S)NC(=O)c4ccccc4C)cc3)c2cc1OC | 95.7
43 | CCN1/C(=C/C(C)=O)Sc2ccc(OC)cc21 | 90.1

These molecules were tested against TAOK3 (human) (UniProt Q9H2K8) in the same assay as above. Conditions: compound 0.5 µM; ATP 10 µM.

Row | Compound | residual activity [%]
44 | O=C(Nc1ccc(Cl)cc1)c1ccccc1NCc1ccncc1 | 94.1
45 | CC(C)n1cnc2c(Nc3cccc(Cl)c3)nc(NCCO)nc21 | 91.8
46 | COc1cc2nccc(Oc3ccc(NC(=S)NC(=O)c4ccccc4C)cc3)c2cc1OC | 87.9
47 | CCN1/C(=C/C(C)=O)Sc2ccc(OC)cc21 | 95.6

What follows are molecules tested against TNK2 (human) (UniProt Q07912) in the same assay as above. Conditions: compound 0.5 µM; ATP 10 µM.

Row | Compound | residual activity [%]
48 | O=C(Nc1ccc(Cl)cc1)c1ccccc1NCc1ccncc1 | 99.3
49 | CC(C)n1cnc2c(Nc3cccc(Cl)c3)nc(NCCO)nc21 | 70.8
50 | COc1cc2nccc(Oc3ccc(NC(=S)NC(=O)c4ccccc4C)cc3)c2cc1OC | 26.9
51 | CCN1/C(=C/C(C)=O)Sc2ccc(OC)cc21 | 102

What follows are molecules tested against GSK3A (human) (UniProt P49840) in the same assay as above. Conditions: compound 0.5 µM; ATP 10 µM.

Row | Compound | residual activity [%]
52 | O=C(Nc1ccc(Cl)cc1)c1ccccc1NCc1ccncc1 | 80.1
53 | CC(C)n1cnc2c(Nc3cccc(Cl)c3)nc(NCCO)nc21 | 103
54 | COc1cc2nccc(Oc3ccc(NC(=S)NC(=O)c4ccccc4C)cc3)c2cc1OC | 91.4
55 | CCN1/C(=C/C(C)=O)Sc2ccc(OC)cc21 | 85.7

What follows are molecules tested against CHUK (human) (UniProt O15111) in the same assay as above. Conditions: compound 0.5 µM; ATP 10 µM.

Row | Compound | residual activity [%]
56 | O=C(Nc1ccc(Cl)cc1)c1ccccc1NCc1ccncc1 | 104
57 | CC(C)n1cnc2c(Nc3cccc(Cl)c3)nc(NCCO)nc21 | 96.1
58 | COc1cc2nccc(Oc3ccc(NC(=S)NC(=O)c4ccccc4C)cc3)c2cc1OC | 98.3
59 | CCN1/C(=C/C(C)=O)Sc2ccc(OC)cc21 | 89.9

What follows are molecules tested against IKBKB (human) (UniProt O14920) in the same assay as above. Conditions: compound 0.5 µM; ATP 10 µM.
IKBKB (human), sequence (O14920 whole entry, looked up): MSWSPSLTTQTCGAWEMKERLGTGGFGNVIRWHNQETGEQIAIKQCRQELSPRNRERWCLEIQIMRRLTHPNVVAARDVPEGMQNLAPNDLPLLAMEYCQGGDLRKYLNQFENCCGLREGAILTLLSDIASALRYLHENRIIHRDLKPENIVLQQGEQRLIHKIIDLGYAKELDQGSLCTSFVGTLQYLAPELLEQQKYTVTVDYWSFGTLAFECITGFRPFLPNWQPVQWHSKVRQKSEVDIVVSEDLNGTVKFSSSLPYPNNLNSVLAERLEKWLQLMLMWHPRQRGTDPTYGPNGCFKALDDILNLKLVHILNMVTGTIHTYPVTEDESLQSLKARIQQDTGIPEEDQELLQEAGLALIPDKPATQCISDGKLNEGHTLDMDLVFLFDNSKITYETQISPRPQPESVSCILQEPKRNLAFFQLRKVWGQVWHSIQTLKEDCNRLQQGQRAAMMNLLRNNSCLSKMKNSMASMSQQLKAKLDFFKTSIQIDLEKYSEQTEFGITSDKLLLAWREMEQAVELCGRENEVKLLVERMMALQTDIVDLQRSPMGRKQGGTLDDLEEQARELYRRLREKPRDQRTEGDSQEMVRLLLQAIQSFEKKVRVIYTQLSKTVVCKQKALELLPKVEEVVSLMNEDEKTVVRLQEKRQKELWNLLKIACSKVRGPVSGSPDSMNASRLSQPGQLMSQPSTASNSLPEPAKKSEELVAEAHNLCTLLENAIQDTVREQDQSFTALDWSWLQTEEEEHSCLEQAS

Row | Compound | residual activity [%]
60 | O=C(Nc1ccc(Cl)cc1)c1ccccc1NCc1ccncc1 | 99.3
61 | CC(C)n1cnc2c(Nc3cccc(Cl)c3)nc(NCCO)nc21 | 102
62 | COc1cc2nccc(Oc3ccc(NC(=S)NC(=O)c4ccccc4C)cc3)c2cc1OC | 99.4
63 | CCN1/C(=C/C(C)=O)Sc2ccc(OC)cc21 | 102

What follows are molecules tested against PLK1 (human) (UniProt P53350) in the same assay as above. Conditions: compound 0.5 µM; ATP 10 µM.

Row | Compound | residual activity [%]
64 | O=C(Nc1ccc(Cl)cc1)c1ccccc1NCc1ccncc1 | 103
65 | CC(C)n1cnc2c(Nc3cccc(Cl)c3)nc(NCCO)nc21 | 44.1
66 | COc1cc2nccc(Oc3ccc(NC(=S)NC(=O)c4ccccc4C)cc3)c2cc1OC | 97.9
67 | CCN1/C(=C/C(C)=O)Sc2ccc(OC)cc21 | 97

What follows are molecules tested against DDR2 (human) (UniProt Q16832) in the same assay as above. Conditions: compound 0.5 µM; ATP 10 µM.

Row | Compound | residual activity [%]
68 | O=C(Nc1ccc(Cl)cc1)c1ccccc1NCc1ccncc1 | 88.9
69 | CC(C)n1cnc2c(Nc3cccc(Cl)c3)nc(NCCO)nc21 | 93.3
70 | COc1cc2nccc(Oc3ccc(NC(=S)NC(=O)c4ccccc4C)cc3)c2cc1OC | 54.1
71 | CCN1/C(=C/C(C)=O)Sc2ccc(OC)cc21 | 96.6

These molecules were tested against KDR (human) (UniProt P35968) in the same assay as above. Conditions: compound 0.5 µM; ATP 10 µM.

Row | Compound | residual activity [%]
72 | O=C(Nc1ccc(Cl)cc1)c1ccccc1NCc1ccncc1 | 28.2
73 | CC(C)n1cnc2c(Nc3cccc(Cl)c3)nc(NCCO)nc21 | 103
74 | COc1cc2nccc(Oc3ccc(NC(=S)NC(=O)c4ccccc4C)cc3)c2cc1OC | 74.1
75 | CCN1/C(=C/C(C)=O)Sc2ccc(OC)cc21 | 104

Each molecule was assayed against MST1R (human) (UniProt Q04912) in the same assay as above. Conditions: compound 0.5 µM; ATP 10 µM.

Row | Compound | residual activity [%]
76 | O=C(Nc1ccc(Cl)cc1)c1ccccc1NCc1ccncc1 | 90.5
77 | CC(C)n1cnc2c(Nc3cccc(Cl)c3)nc(NCCO)nc21 | 101
78 | COc1cc2nccc(Oc3ccc(NC(=S)NC(=O)c4ccccc4C)cc3)c2cc1OC | 88.8
79 | CCN1/C(=C/C(C)=O)Sc2ccc(OC)cc21 | 94.5

The molecules below were run against CSNK1G3 (human) (UniProt Q9Y6M4) in the same assay as above. Conditions: compound 0.5 µM; ATP 10 µM.

Row | Compound | residual activity [%]
80 | O=C(Nc1ccc(Cl)cc1)c1ccccc1NCc1ccncc1 | 105
81 | CC(C)n1cnc2c(Nc3cccc(Cl)c3)nc(NCCO)nc21 | 6.89
82 | COc1cc2nccc(Oc3ccc(NC(=S)NC(=O)c4ccccc4C)cc3)c2cc1OC | 93.3

Each molecule was assayed against RET (human) (UniProt P07949) in the same assay as above. Conditions: compound 0.5 µM; ATP 10 µM.

Row | Compound | residual activity [%]
83 | O=C(Nc1ccc(Cl)cc1)c1ccccc1NCc1ccncc1 | 58.9
